According to US20250282796A1, “PENEM ANTIBACTERIALS AGAINST MYCOBACTERIAL PATHOGENS AND D,D- AND L,D TRANSPEPTIDASES” (The Johns Hopkins University, priority 2022, published 2025):
≈ marks a conversion by molar mass, not a printed value. Entries after “also recorded” stand apart in the source; their conditions may differ. Read-outs that look alike come from different tables or passages of the source.

Key:
Mab ATCC 19977 = test: MIC broth microdilution assay against Mab ATCC 19977; format: cell-based, Mycobacteroides abscessus; conditions: for MIC: Mycobacteroides abscessus, read-out: MIC Mab ATCC 19977
Mtb H37Rv = test: MIC broth microdilution assay against Mtb H37Rv (with and without clavulanate); format: cell-based, Mycobacterium tuberculosis; conditions: for increase of MIC relative to T405: Mtb H37Rv without clavulanate; for MIC: Mycobacterium tuberculosis, H37RV, 336 h, read-out: MIC Mtb H37Rv
DacB2 = biological target: T1, DacB2 (Mycobacterium tuberculosis, UniProt I6Y204); test: DacB2 adduct formation and stability comparison by intact-protein UPLC-HRMS; format: binding; conditions: for DacB2 adduct formation: 20 μM drug, 1 h
T1 construct: made in house
T1 sequence (I6Y204 28-291): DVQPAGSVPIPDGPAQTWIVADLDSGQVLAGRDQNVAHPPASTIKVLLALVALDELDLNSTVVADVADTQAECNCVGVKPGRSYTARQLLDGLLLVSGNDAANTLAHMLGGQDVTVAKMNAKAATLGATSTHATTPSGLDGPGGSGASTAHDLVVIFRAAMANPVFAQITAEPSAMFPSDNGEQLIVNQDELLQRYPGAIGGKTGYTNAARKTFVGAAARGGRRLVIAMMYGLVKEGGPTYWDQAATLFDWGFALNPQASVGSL

LdtMt2 = biological target: T2, LdtMt2 (Mycobacterium tuberculosis, UniProt I6Y9J2); test: LdtMt2 adduct formation by intact-protein UPLC-HRMS; format: binding; conditions: penem 20 μM, 1 h, 25 mM HEPES pH 7.0, 20° C.
T2 construct: made in house
T2 sequence (I6Y9J2 56-408): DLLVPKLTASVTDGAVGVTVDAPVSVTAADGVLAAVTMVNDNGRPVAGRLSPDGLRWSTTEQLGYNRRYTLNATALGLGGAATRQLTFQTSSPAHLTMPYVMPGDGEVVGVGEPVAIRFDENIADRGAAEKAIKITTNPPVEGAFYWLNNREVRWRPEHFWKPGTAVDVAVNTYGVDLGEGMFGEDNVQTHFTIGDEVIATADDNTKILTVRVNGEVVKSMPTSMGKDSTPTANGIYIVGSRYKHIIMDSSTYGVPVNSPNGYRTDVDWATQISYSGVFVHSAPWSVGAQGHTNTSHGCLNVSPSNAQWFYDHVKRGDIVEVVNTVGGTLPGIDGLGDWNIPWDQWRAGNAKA

[1] = ATCC19977, Middlebrook 7H9, 30° C., 72 h
[2] = without clavulanate, Middlebrook 7H9, 37° C., 14 d
[3] = 24 h after removal of free drug, 20° C.

| SMILES | MIC (Mab ATCC 19977; [1]) | MIC (Mtb H37Rv; [2]) | MIC Mtb H37Rv with Clavulanate (5 μg/ml) (Mtb H37Rv; Middlebrook 7H9, 37° C., 14 d) | further results |
| --- | --- | --- | --- | --- |
| C[C@@H](O)[C@H]1C(=O)N2C(C(=O)O)=C(SC3CN(C4=NCCCS4)C3)S[C@H]12 [Compound T420, (5R,6S)-3-((1-(5,6-dihydro-4H-1,3-thiazin-2-yl)azetidin-3-yl)thio)-6-((R)-1-hydroxyethyl)-7-oxo-4-thia-1-azabicyclo[3.2.0]hept-2-ene-2-carboxylic acid] | 16 µg/mL (≈ 39.8 µM) | 2 µg/mL | 0.5 µg/mL | increase of MIC relative to T405 (Mtb H37Rv): two dilutions |
| C[C@@H](O)[C@H]1C(=O)N2C(C(=O)O)=C(SC3CN(c4nc5ccccc5s4)C3)S[C@H]12 [Compound T423, (5R,6S)-3-((1-(benzo[d]thiazol-2-yl)azetidin-3-yl)thio)-6-((R)-1-hydroxyethyl)-7-oxo-4-thia-1-azabicyclo[3.2.0]hept-2-ene-2-carboxylic acid] | 64 µg/mL (≈ 147 µM) | 8 µg/mL | 2 µg/mL | increase of MIC relative to T405 (Mtb H37Rv): 16 fold |
| C[C@@H](O)[C@H]1C(=O)N2C(C(=O)O)=C(S[C@@H]3CCNC3)S[C@H]12 [Compound T425, (5R,6S)-6-((R)-1-hydroxyethyl)-7-oxo-3-(((R)-pyrrolidin-3-yl)thio)-4-thia-1-azabicyclo[3.2.0]hept-2-ene-2-carboxylic acid] | 2 µg/mL (≈ 6.32 µM) | 0.5 µg/mL | 0.25 µg/mL | MIC against Mab (Mab ATCC 19977; Mab ATCC 19977): 1 µg/mL (≈ 3.16 µM) |
| C[C@@H](O)[C@H]1C(=O)N2C(C(=O)O)=C(SCCN=CN)C[C@H]12 [Imipenem, reference compound] | 8 µg/mL (≈ 26.7 µM) |  |  | MIC Mab ATCC 19977 (Mab ATCC 19977; Middlebrook 7H9, 30° C., 72 h): 8 µg/mL (≈ 26.7 µM) |
| C[C@@H](O)[C@H]1C(=O)N2C(C(=O)O)=C(S[C@@H]3CCN(C4CCOCC4)C3)S[C@H]12 [Compound T432, (5R,6S)-6-((R)-1-hydroxyethyl)-7-oxo-3-(((R)-1-(tetrahydro-2H-pyran-4-yl)pyrrolidin-3-yl)thio)-4-thia-1-azabicyclo[3.2.0]hept-2-ene-2-carboxylic acid] | 4 µg/mL (≈ 9.99 µM) | 4 µg/mL |  |  |
| C[C@@H](O)[C@H]1C(=O)N2C(C(=O)O)=C(S[C@@H]3CN[C@H](C(=O)N(C)C)C3)[C@H](C)[C@H]12 [Meropenem, reference compound] |  | 8 µg/mL | 0.5 µg/mL | DacB2 adduct formation (DacB2; 20° C., pH 7.0): fully reacts with DacB2; DacB2 adduct stability (in words) (DacB2; [3]): stable after removal of drug for 24 h; DacB2 adduct stability (in words) (DacB2; 24 h after removal of free drug, 20° C., listed as meropenem): remained completely bound; also recorded: fully bound; MIC Mtb H37Rv (Mtb H37Rv; [2]): 8 µg/mL |
| CCN1CC[C@@H](SC2=C(C(=O)O)N3C(=O)[C@H]([C@@H](C)O)[C@H]3S2)C1 [Compound T431, (5R,6S)-3-(((R)-1-ethylpyrrolidin-3-yl)thio)-6-((R)-1-hydroxyethyl)-7-oxo-4-thia-1-azabicyclo[3.2.0]hept-2-ene-2-carboxylic acid] | 4 µg/mL (≈ 11.6 µM) | 4 µg/mL |  |  |
| C[C@@H](O)[C@H]1C(=O)N2C(C(=O)O)=C(SCC3CNC3)S[C@H]12 [Compound T428, (5R,6S)-3-((azetidin-3-ylmethyl)thio)-6-((R)-1-hydroxyethyl)-7-oxo-4-thia-1-azabicyclo[3.2.0]hept-2-ene-2-carboxylic acid] | 8 µg/mL (≈ 25.3 µM) | 0.5 µg/mL | 0.25 µg/mL | DacB2 adduct formation (DacB2; 20° C., pH 7.0): formed intact adducts; DacB2 adduct stability (in words) (DacB2; [3]): partially hydrolyzed; inhibitor retained on DacB2 (percent bound) (DacB2; 24 h after removal of free drug, 20° C., pH 7.0): 86%; loss of drug from DacB2 adduct (DacB2; 24 h after washing away free drug): 14%; covalent LdtMt2 adduct formed (LdtMt2): formed a +86 Da LdtMt2 adduct; also recorded: fragmentation to a M+86 Da 3-hydroxybutyryl group |
| CCN1CC(SC2=C(C(=O)O)N3C(=O)[C@H]([C@@H](C)O)[C@H]3S2)C1 [Compound T421, (5R,6S)-3-((1-ethylazetidin-3-yl)thio)-6-((R)-1-hydroxyethyl)-7-oxo-4-thia-1-azabicyclo[3.2.0]hept-2-ene-2-carboxylic acid] | 4 µg/mL (≈ 12.1 µM) | 1 µg/mL | 0.5 µg/mL |  |
| C[C@@H](O)[C@H]1C(=O)N2C(C(=O)O)=C(SC3CCNCC3)S[C@H]12 [Compound T427, (5R,6S)-6-((R)-1-hydroxyethyl)-7-oxo-3-(piperidin-4-ylthio)-4-thia-1-azabicyclo[3.2.0]hept-2-ene-2-carboxylic acid] |  |  | 0.5 µg/mL | MIC (Mab ATCC 19977; ATCC19977, 72 h): 4 µg/mL (≈ 12.1 µM); increase of MIC relative to T405 (Mtb H37Rv): two-fold; MIC (Mtb H37Rv): 1 µg/mL |
| C[C@@H](O)[C@H]1C(=O)N2C(C(=O)O)=C(SC3CN(C4CCOCC4)C3)S[C@H]12 [Compound T430, (5R,6S)-6-((R)-1-hydroxyethyl)-7-oxo-3-((1-(tetrahydro-2H-pyran-4-yl)azetidin-3-yl)thio)-4-thia-1-azabicyclo[3.2.0]hept-2-ene-2-carboxylic acid] | 4 µg/mL (≈ 10.3 µM) | 4 µg/mL |  |  |
| C[C@@H](O)[C@H]1C(=O)N2C(C(=O)O)=C(SC3CNC3)S[C@H]12 [Compound T422, (5R,6S)-3-(azctidin-3-ylthio)-6-((R)-1-hydroxyethyl)-7-oxo-4-thia-1-azabicyclo[3.2.0]hept-2-ene-2-carboxylic acid] |  |  | 0.5 µg/mL | weaker activity (MIC) relative to T405 (Mab ATCC 19977; Mab ATCC 19977): 2 fold; MIC (Mab ATCC 19977; ATCC19977, 72 h): 4 µg/mL (≈ 13.2 µM); MIC (Mtb H37Rv): 0.5 µg/mL |
| C[C@@H](O)[C@H]1C(=O)N2C(C(=O)O)=C(SCC3CCNCC3)S[C@H]12 [Compound T429, (5R,6S)-6-((R)-1-hydroxyethyl)-7-oxo-3-((piperidin-4-ylmethyl)thio)-4-thia-1-azabicyclo[3.2.0]hept-2-ene-2-carboxylic acid] | 4 µg/mL (≈ 11.6 µM) | 0.5 µg/mL | 0.25 µg/mL |  |
| C[C@@H](O)[C@H]1C(=O)N2C(C(=O)O)=C(SC3CN(c4nc5ccccc5n4C)C3)S[C@H]12 [Compound T418, (5R,6S)-6-((R)-1-hydroxyethyl)-3-((1-(1-methyl-1H-benzo[d]imidazol-2-yl)azetidin-3-yl)thio)-7-oxo-4-thia-1-azabicyclo[3.2.0]hept-2-ene-2-carboxylic acid] | 64 µg/mL (≈ 148 µM) | 2 µg/mL | 0.5 µg/mL | increase of MIC relative to T405 (Mtb H37Rv): four-fold |
| C[C@@H](O)[C@H]1C(=O)N2C(C(=O)O)=C(S[C@H]3CCNC3)S[C@H]12 [Compound T426, (5R,6S)-6-((R)-1-hydroxyethyl)-7-oxo-3-(((S)-pyrrolidin-3-yl)thio)-4-thia-1-azabicyclo[3.2.0]hept-2-ene-2-carboxylic acid] | 2 µg/mL (≈ 6.32 µM) | 0.5 µg/mL | 0.25 µg/mL | DacB2 adduct formation (DacB2; 20° C., pH 7.0): formed intact adducts; DacB2 adduct stability (in words) (DacB2; [3]): remained completely bound; also recorded: fully bound; also recorded: stable for at least 24 h after drug removal; MIC against Mab (Mab ATCC 19977; Mab ATCC 19977): 1 µg/mL (≈ 3.16 µM); covalent LdtMt2 adduct formed (LdtMt2): formed a +86 Da LdtMt2 adduct; also recorded: fragmentation to a M+86 Da 3-hydroxybutyryl group |
